Measurements published in patent publication US6939864B1, “Animal feed compositions and methods of using the same” (Purdue Research Foundation, priority 2001, dated 2005).

Assays:
[1] = test system: serum cortisol (CS), ACTH and tumor necrosis factor-alpha (TNF); assay: Porcine study: serum ACTH, cortisol and TNF, basal and after I.V. LPS challenge; assay type: in vivo, pigs; conditions: I.V. LPS 150 ug/kg, day 14 postweaning
Text: The objective of this study was to evaluate the potential benefit of supplementing the neonatal pig with Vitamin C (VC) and/or Beta-glucan (BG). Thirty-two crossbred pigs were selected at birth and assigned to one of four dietary treatment groups (n=8/group). Beginning on the day of birth, pigs received their respective treatments via an oral gavage on a daily basis until weaning at 2 weeks of age. Dietary treatment groups included Control (Con; no VC or BG), VC (75 ppm), BG (0.312 g/kg body weight) and VC+BG (75 ppm and 0.312 g/kg body weight). After weaning, pigs were placed on a starter ration containing their respective dietary treatments and a Phase 1 diet specific for the University of Missouri Swine unit for a 2 week period. Body weights were recorded every 3 days to adjust dietary treatment doses. On day 14 postweaning, blood samples were collected at 30-min intervals for one hour followed by an I.V. injection of lipopolysaccharide (LPS; 150 ug/kg). LPS is part of bacterial cell walls that initiates the immune response. Blood samples were collected at 30-min intervals for an additional 3-hour period following the LPS challenge. Blood samples were analyzed for serum cortisol (CS), ACTH and tumor necrosis factor-alpha (TNF) which are indicators of acute stress response to challenge (LPS).

[2] = Calf study: body weight change and fecal scores; assay type: in vivo, calves; conditions: mean ±SE
Experimental: Three days after they were born, calves were started on all milk, milk replacer. The calves were assigned randomly to one of four treatment groups control, β-glucan, Vitamin C, and β-glucan and Vitamin C. Each treatment is represented in a block (1 block has 4 calves and each room has 3 blocks). Initial weight and temperature were taken when calves were placed on study, then weekly for six more weeks.
Fecal scores, nasal and ocular discharges were recorded daily along with room temperature and humidity. Blood samples were taken every week for seven weeks; 10 ml heparinized tube for plasma to measure cortisol and ascorbic acid; 5 ml sodium citrate tube for hematocrits, granulocytes, lymphocytes and fibrinogen.
Calves were fed milk replacer equaling 10% of their body weight per day, which was given in two equal rations (morning and afternoon). Dry milk replacer was equal to 12.5% of amount fed. Calves on treatment […] were given β-glucan equaling 0.3125% of total intake. Calves on treatment 3 and 4 received 250 mg of Vitamin C twice a day.

What does the source list for `O=C1O[C@H]([C@@H](O)CO)C(O)=C1O` [VC, ascorbic acid]?
TNF response to the LPS challenge [1]: more rapid decline in serum TNF; CS response to the LPS challenge ([1]; compared to Con group): lower

With ascorbyl-2-polyphosphonate [AA] as the molecule, how does the “Mean BW change” value ([2]; dairy calves on milk replacer) read?
The value was 1.48±0.12 kg/wk.

And the mean fecal scores ([2]; scale of 1–4, 1=solid and 4=fluid)?
Its mean fecal scores is 1.48±0.03.
